Data taken from US9284292B2, “Sialochimeric compounds” (THERAPICON S.R.L., priority 2009, dated 2016).

Assays:
[1] = tested on: influenza virus A/H1N1 (A/New Caledonia/20/1999); assay type: cell-based, influenza virus type A
[2] = tested on: influenza virus A/H1N1 (A/New Caledonia/20/99); assay: organism not typed; assay type: cell-based, influenza virus type A; settings: MDCK, 72 h, read-out: EC50 vs A/H1N1
[3] = tested on: influenza virus A/H3N2 (A/Panama/2007/99); assay: organism not typed; assay type: cell-based, influenza virus type A; settings: MDCK, 72 h, read-out: EC50 vs A/H3N2
[4] = tested on: influenza virus B (B/Parma/1/07); assay: microbe, parasite or virus in culture; assay type: cell-based; settings: study I; for EC50: 72 h, MDCK cells, 50% plaque reduction vs control, 3 days
[5] = in vivo; cited from earlier work

| SMILES | EC50 [1] [µM] | EC50 [2] [µM] | EC50 [3] [µM] | EC50 [4] [µM] | antiviral activity versus virus type A relative to virus type B ([4]; higher versus type A than type B) [folds] | absorbed by oral route [5] |
| --- | --- | --- | --- | --- | --- | --- |
| CCOC(=O)C1=CC(OC(CC)CC)C(NC(C)=O)C(NC2(C(=O)O)CC(O)C(NC(C)=O)C(CNC34CC5CC(CC(C5)C3)C4)O2)C1 (stereo not drawn) [THE 08/01, Amantadine-C7-Neu5Ac—C16H28N2O4] | 16 | 9.9 | 15.4 | 126 | 10 |  |
| CC(=O)NC1C(O)CC(NC(=N)NC2C=C(C(=O)O)OC(C(O)C(O)CO)C2NC(C)=O)(C(=O)O)OC1CNC12CC3CC(CC(C3)C1)C2 (stereo not drawn) [THE 10/01, Amantadine-C7-Neu5Ac—C12H20N4O7] |  | 11.7 | 18.3 | 99.5 |  |  |
| CC(=O)N[C@H]1[C@H]([C@H](O)[C@H](O)CO)OC(C(=O)O)=C[C@@H]1N=C(N)N [zanamivir] |  |  |  |  |  | about 2% |
